The target in this experiment is hTREM2 (Homo sapiens, UniProt Q9NZC2). In words: TREM2 activity by cellular Syk phosphorylation (AlphaScreen/AlphaLISA) in TREM2/DAP12-HEK cells, used for Examples 1-305. Type of experiment: cell-based. Details: expressed in transfected cells. The following applies: HEK293 Cells. The essentials:
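Phospho-Syk (Tyr525/526) over total Syk quantified by AlphaScreen in lysates of cloned TREM2/DAP12-overexpressing HEK293 cells after 45 min compound treatment at room temperature, 1% final DMSO. Values expressed relative to 100 nM anti-TREM2 antibody (positive) and isotype IgG (negative) controls; curves fitted with 4-parameter logistic model.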

Chain of hTREM2 (Q9NZC2 19-230): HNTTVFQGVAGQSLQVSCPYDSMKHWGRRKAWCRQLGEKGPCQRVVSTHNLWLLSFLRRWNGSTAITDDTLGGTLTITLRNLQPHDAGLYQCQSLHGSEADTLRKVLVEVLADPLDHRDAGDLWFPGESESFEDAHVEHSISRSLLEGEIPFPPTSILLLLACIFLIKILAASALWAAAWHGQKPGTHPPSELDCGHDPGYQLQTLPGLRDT
Chain of hTREM2 (O43914 22-113 partner): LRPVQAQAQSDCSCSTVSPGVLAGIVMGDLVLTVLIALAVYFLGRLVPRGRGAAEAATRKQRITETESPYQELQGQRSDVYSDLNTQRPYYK

As a reminder, the EC50 is the concentration at which the effect is half-maximal. A lower EC50 goes with higher potency in that assay. Regarding `Cc1cc([C@H]2CN(c3nc(-c4ccc(F)cc4F)c4ncc(C)nc4n3)CCO2)ccn1` [Example 8, 4-(2,4-difluorophenyl)-7-methyl-2-((2S)-2-(2-methyl-4-pyridinyl)-4-morpholinyl)pteridine], the half-maximal effective concentration (EC50) was at most 50 nM; the “hTREM2 Emax” value is “++ (Emax>100 and ≤150)”.
Take `Cc1nc2nc([C@@H]3CCO[C@@H](c4cnn(C)c4)C3)nc(-c3ccc(Cl)cc3F)c2nc1C` [Example 179, 4-(4-chloro-2-fluorophenyl)-6,7-dimethyl-2-((2R,4R)-2-(1-methyl-1H-pyrazol-4-yl)tetrahydro-2H-pyran-4-yl)pteridine]: the 50% effective concentration (EC50) is 500 to 3000 nM and the “hTREM2 Emax” value is reported as “++++ (Emax>250)”.
Regarding `Cc1cnc2c(-c3ccc(Cl)cc3F)cc([C@H]3CCO[C@@H](c4cnn(C)c4)C3)nc2n1` (single isomer, unassigned) [Example 185], the concentration giving a half-maximal response (EC50) lay in the range of 50 to 500 nM; the “hTREM2 Emax” value is “+++ (Emax>150 and ≤250)”.
Regarding `COC1CN(c2nc(N3CCO[C@@H](c4cnn(C)c4)C3)nc3nc(C)c(C)nc23)C1` [Example 28, 4-(3-methoxy-1-azetidinyl)-6,7-dimethyl-2-((2S)-2-(1-methyl-1H-pyrazol-4-yl)-4-morpholinyl)pteridine], the EC50 was 500 to 3000 nM; the “hTREM2 Emax” value is “+++ (Emax>150 and ≤250)”.
In the case of `Cc1cc([C@H]2CN(c3nc(-c4ccc(Cl)cc4F)c4ccc(C)nc4n3)CCO2)ccn1` [Example 88, 4-(4-chloro-2-fluorophenyl)-7-methyl-2-((2S)-2-(2-methyl-4-pyridinyl)-4-morpholinyl)pyrido[2,3-d]pyrimidine], the concentration giving a half-maximal response (EC50) was at most 50 nM and the “hTREM2 Emax” value is “++++ (Emax>250)”.
For `Cc1cc([C@@H]2CN(c3cc4nc(C)ccc4c(-c4ccc(Cl)cc4F)n3)CCO2)ccn1` [Example 240, (R)-4-(5-(4-chloro-2-fluorophenyl)-2-methyl-1,6-naphthyridin-7-yl)-2-(2-methylpyridin-4-yl)morpholine], the EC50 fell in the range of 3000 to 100000 nM and the “hTREM2 Emax” value is on record as “++++ (Emax>250)”.
The matching figures for `Cc1ccc(-c2nc(N3CCO[C@@H](c4ccnc(C)c4)C3)nc3nc(C)ccc23)c(F)c1` [Example 96, 4-(2-fluoro-4-methylphenyl)-7-methyl-2-((2S)-2-(2-methyl-4-pyridinyl)-4-morpholinyl)pyrido[2,3-d]pyrimidine]: at most 50 nM and “++++ (Emax>250)”.
In the case of `Cc1nc2nc([C@H]3CCO[C@@H](c4cnn(C5CC5)c4)C3)nc(-c3ccc(C(F)(F)F)nc3)c2nc1C` [Example 300, 2-((2R,4S)-2-(1-cyclopropyl-1H-pyrazol-4-yl)tetrahydro-2H-pyran-4-yl)-6,7-dimethyl-4-(6-(trifluoromethyl)pyridin-3-yl)pteridine], the concentration for a half-maximal effect (EC50) was in the range of 50 to 500 nM; the “hTREM2 Emax” value is “+++ (Emax>150 and ≤250)”.
For the compound `Cc1cnc2c(-c3ccc(Cl)cc3F)nc([C@H]3CCO[C@@H](c4cnn(C)c4)C3)cc2n1` (single isomer, unassigned) [Example 191], the EC50 lay in the range of 50 to 500 nM and the “hTREM2 Emax” value was “++++ (Emax>250)”.
With `Cc1nc2nc(N3CCO[C@@H](c4cnn(C5CC5)c4)C3)nc(C3CC4(C3)CC(F)(F)C4)c2nc1C` [Example 49, 2-((2S)-2-(1-cyclopropyl-1H-pyrazol-4-yl)-4-morpholinyl)-4-(6,6-difluorospiro[3.3]heptan-2-yl)-6,7-dimethylpteridine], the half-maximal effective concentration (EC50) is at most 50 nM; the “hTREM2 Emax” value was “++ (Emax>100 and ≤150)”.
On to `Cc1nc2nc(N3CCO[C@@H](c4cnn(C)c4)C3)nc(N3CCC(C)(C)C3)c2nc1C` [Example 72, 4-(3,3-dimethyl-1-pyrrolidinyl)-6,7-dimethyl-2-((2S)-2-(1-methyl-1H-pyrazol-4-yl)-4-morpholinyl)pteridine], for which the EC50 lay in the range of 500 to 3000 nM; the “hTREM2 Emax” value is “+ (Emax>45 and ≤100)”.
`Cc1nc2cc([C@@H]3CCO[C@H](c4cnn(C)c4)C3)nc(-c3ccc(Cl)cc3F)c2nc1C` (single isomer, unassigned) [Example 193]: the EC50 lay within 50 to 500 nM and the “hTREM2 Emax” value is “++++ (Emax>250)”.
In the case of `Cc1cnc2c(n1)nc(N1CCO[C@@H](c3cnn(C4CC4)c3)C1)nc2[C@H]1C[C@H](C(F)(F)F)C1` [Example 13, 2-((2S)-2-(1-cyclopropyl-1H-pyrazol-4-yl)-4-morpholinyl)-7-methyl-4-(trans-3-(trifluoromethyl)cyclobutyl)pteridine], the EC50 is at most 50 nM; the “hTREM2 Emax” value is “+ (Emax>45 and ≤100)”.
In the case of `Cc1ccc2c(C3CCC(F)(F)CC3)nc(N3CCO[C@@H](c4cnn(C)c4)C3)nc2n1` [Example 141, 4-(4,4-difluorocyclohexyl)-7-methyl-2-((2S)-2-(1-methyl-1H-pyrazol-4-yl)-4-morpholinyl)pyrido [2,3-d]pyrimidine], the 50% effective concentration (EC50) lay within 50 to 500 nM; the “hTREM2 Emax” value is “++ (Emax>100 and ≤150)”.
In the case of `Cc1ccc(-c2nc([C@H]3CCO[C@@H](c4cnn(C)c4)C3)cc3nc(C)c(C)nc23)c(F)c1` (single isomer, unassigned) [Example 196], the concentration for a half-maximal effect (EC50) is at most 50 nM; the “hTREM2 Emax” value is “+++ (Emax>150 and ≤250)”.
Regarding `Cc1nc2nc(N3CCO[C@@H](c4cnn(C)c4)C3)nc(-c3ccc(C(F)(F)F)nc3)c2nc1C` [Example 19, 6,7-dimethyl-2-((2S)-2-(1-methyl-1H-pyrazol-4-yl)-4-morpholinyl)-4-(6-(trifluoromethyl)-3-pyridinyl)pteridine], the EC50 was at most 50 nM; the “hTREM2 Emax” value was “+++ (Emax>150 and ≤250)”.
As for `Cc1ccc2c(-c3ccc(Cl)cc3F)nc([C@@H]3CCO[C@H](c4cnn(C)c4)C3)nc2n1` [Example 288, 4-(4-chloro-2-fluorophenyl)-7-methyl-2-((2S,4R)-2-(1-methyl-1H-pyrazol-4-yl)tetrahydro-2H-pyran-4-yl)pyrido[2,3-d] pyrimidine], the EC50 was at most 50 nM; the “hTREM2 Emax” value is “++ (Emax>100 and ≤150)”.
As for `Cc1nc2nc(N3CCO[C@@H](c4cnn(C)c4)C3)nc(C34CC(C(F)(F)F)(C3)C4)c2nc1C` [Example 63, 6,7-dimethyl-2-((2S)-2-(1-methyl-1H-pyrazol-4-yl)-4-morpholinyl)-4-(3-(trifluoromethyl)bicyclo[1.1.1]pentan-1-yl)pteridine], the EC50 was at most 50 nM; the “hTREM2 Emax” value is “+++ (Emax>150 and ≤250)”.
As to `Cc1cc2c(-c3ccc(Cl)cc3F)cc(N3CCO[C@@H](c4cnn(C)c4)C3)nc2nc1C` [Example 157, 5-(4-chloro-2-fluorophenyl)-2,3-dimethyl-7-((2S)-2-(1-methyl-1H-pyrazol-4-yl)-4-morpholinyl)-1,8-naphthyridine], the EC50 was at most 50 nM and the “hTREM2 Emax” value is recorded as “++++ (Emax>250)”.
As to `Cc1cc2c(-c3ccc(Cl)cc3F)nc([C@@H]3CCO[C@H](c4cnn(C)c4)C3)nc2nc1C` (single isomer, unassigned) [Example 226], the 50% effective concentration (EC50) is 50 to 500 nM; the “hTREM2 Emax” value is “+++ (Emax>150 and ≤250)”.
For the compound `Cc1ccc2c(-c3ccc(Cl)cc3F)nc(N3CCO[C@@H](c4cnn(C)c4)C3)cc2c1` [Example 147, 1-(4-chloro-2-fluorophenyl)-6-methyl-3-((2S)-2-(1-methyl-1H-pyrazol-4-yl)-4-morpholinyl) isoquinoline], the concentration giving a half-maximal response (EC50) was 3000 to 100000 nM and the “hTREM2 Emax” value is given as “++++ (Emax>250)”.
